The text below walks through data of ChEMBL document CHEMBL5665443, “Enzyme Inhibitor Single Concentration assay results for EUbOPEN Chemogenomics Library” (2024).

Assay [1] addresses Methyl-CpG-binding domain protein 4 (Homo sapiens) (UniProt O95243). The following applies: Compound Concentration 10.0 uM, Hit No.
Description: Inhibition of MBD4 by quantifying inhibition of MBD4-mediated cleavage and dissociation of quenched duplex DNA oligonucleotides, measured as fluorescence at 594 nm. To generate a functional strand incision and increase turn-over this assay is coupled to APE1.
The target in assay [2] is DNA-3-methyladenine glycosylase (Homo sapiens) (UniProt P29372). The following applies: Compound Concentration 10.0 uM, Hit No.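 Further: enzyme assay where MPG cuts a quenched duplex DNA oligonucleotide probe, paired with APE1 for strand incision and turnover, read as fluorescence at 594 nm.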
Sequence of DNA-3-methyladenine glycosylase (Homo sapiens) (P29372 whole entry): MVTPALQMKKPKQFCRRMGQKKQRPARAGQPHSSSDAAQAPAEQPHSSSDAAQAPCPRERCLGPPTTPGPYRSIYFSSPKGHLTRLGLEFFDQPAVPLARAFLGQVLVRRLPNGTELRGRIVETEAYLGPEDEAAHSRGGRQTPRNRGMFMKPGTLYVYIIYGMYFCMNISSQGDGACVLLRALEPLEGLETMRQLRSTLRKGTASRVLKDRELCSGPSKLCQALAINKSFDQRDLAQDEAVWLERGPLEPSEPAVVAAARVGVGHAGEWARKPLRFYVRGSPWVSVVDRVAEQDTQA
Description: Inhibition of MPG by quantifying inhibition of MPG-mediated cleavage and dissociation of quenched duplex DNA oligonucleotides, measured as fluorescence at 594 nm. To generate a functional strand incision and increase turn-over this assay is coupled to APE1.
Assay [3] addresses T1, Adenine DNA glycosylase (Homo sapiens) (UniProt Q9UIF7).
T1 sequence (whole entry): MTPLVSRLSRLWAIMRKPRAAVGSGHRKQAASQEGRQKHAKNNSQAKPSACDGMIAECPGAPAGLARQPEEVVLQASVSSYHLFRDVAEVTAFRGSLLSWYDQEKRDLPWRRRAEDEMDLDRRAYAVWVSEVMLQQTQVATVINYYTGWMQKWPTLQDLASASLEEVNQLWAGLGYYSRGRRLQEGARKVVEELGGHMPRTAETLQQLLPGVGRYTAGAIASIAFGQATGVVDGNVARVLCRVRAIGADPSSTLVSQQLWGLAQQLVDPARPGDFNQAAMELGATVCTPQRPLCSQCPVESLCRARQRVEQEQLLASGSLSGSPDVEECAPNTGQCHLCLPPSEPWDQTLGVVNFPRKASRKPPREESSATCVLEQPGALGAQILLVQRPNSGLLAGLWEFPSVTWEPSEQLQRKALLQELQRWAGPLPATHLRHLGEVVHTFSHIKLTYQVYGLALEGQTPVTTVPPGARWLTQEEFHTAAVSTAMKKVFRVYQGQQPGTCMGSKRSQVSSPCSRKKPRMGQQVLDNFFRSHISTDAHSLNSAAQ
The conditions noted are these: Compound Concentration 10.0 uM, Hit No.
Description: Inhibition of MUTYH by quantifying inhibition of MUTYH-mediated cleavage and dissociation of quenched duplex DNA oligonucleotides, measured as fluorescence at 594 nm. To generate a functional strand incision and increase turn-over this assay is coupled to APE1.

Assay [4] has as its target Endonuclease 8-like 1 (Homo sapiens) (UniProt Q96FI4). The conditions noted are these: Compound Concentration 10.0 uM, Hit No.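 Further: fluorescence at 594 nm from quenched duplex DNA oligonucleotides released by NEIL1 cleavage and strand separation, reported as reduction of this enzyme activity.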
Description: Inhibition of NEIL1 by quantifying inhibition of NEIL1-mediated cleavage and dissociation of quenched duplex DNA oligonucleotides, measured as fluorescence at 594 nm.
Assay [5] addresses T2, Endonuclease 8-like 2 (Homo sapiens) (UniProt Q969S2).
T2 sequence (whole entry): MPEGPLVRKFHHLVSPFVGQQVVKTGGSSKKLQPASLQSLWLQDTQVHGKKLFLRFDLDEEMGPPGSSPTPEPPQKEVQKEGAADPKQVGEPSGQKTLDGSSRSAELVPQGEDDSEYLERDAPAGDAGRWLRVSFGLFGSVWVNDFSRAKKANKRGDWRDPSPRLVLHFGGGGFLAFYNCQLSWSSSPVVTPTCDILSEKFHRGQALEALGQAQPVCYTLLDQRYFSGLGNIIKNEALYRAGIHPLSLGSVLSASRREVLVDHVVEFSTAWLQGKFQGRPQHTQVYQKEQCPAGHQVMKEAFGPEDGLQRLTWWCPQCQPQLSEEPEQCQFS
The conditions noted are these: Compound Concentration 10.0 uM, Hit No.
Description: Inhibition of NEIL2 by quantifying inhibition of NEIL2-mediated cleavage and dissociation of quenched duplex DNA oligonucleotides, measured as fluorescence at 594 nm.

Assay [6] has as its target T3, Endonuclease III-like protein 1 (Homo sapiens) (UniProt P78549).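 Further: enzyme assay tracking NTHL1 cutting and release of a quenched double-stranded DNA oligo substrate, read as fluorescence at 594 nm.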
T3 sequence (whole entry): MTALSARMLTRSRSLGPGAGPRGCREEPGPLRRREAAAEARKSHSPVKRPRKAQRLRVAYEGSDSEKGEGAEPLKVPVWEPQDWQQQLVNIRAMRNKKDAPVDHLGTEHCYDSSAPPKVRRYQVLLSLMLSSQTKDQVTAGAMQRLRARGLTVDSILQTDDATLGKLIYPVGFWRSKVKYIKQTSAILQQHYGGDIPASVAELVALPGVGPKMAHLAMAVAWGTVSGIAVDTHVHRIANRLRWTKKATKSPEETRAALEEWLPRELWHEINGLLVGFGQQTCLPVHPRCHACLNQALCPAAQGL
The following applies: Compound Concentration 10.0 uM, Hit No.
Description: Inhibition of NTHL1 by quantifying inhibition of NTHL1-mediated cleavage and dissociation of quenched duplex DNA oligonucleotides, measured as fluorescence at 594 nm.

Assay [7] has as its target N-glycosylase/DNA lyase (Homo sapiens) (UniProt O15527). The conditions noted are these: Compound Concentration 10.0 uM.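 Further: OGG1 cleavage of a quenched duplex DNA oligonucleotide, coupled to APE1 for strand incision, read as fluorescence at 594 nm.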
Description: Inhibition of OGG1 by quantifying inhibition of OGG1-mediated cleavage and dissociation of quenched duplex DNA oligonucleotides, measured as fluorescence at 594 nm. To generate a functional strand incision and increase turn-over this assay is coupled to APE1.
The target of assay [8] is T4, Single-strand selective monofunctional uracil DNA glycosylase (Homo sapiens) (UniProt Q53HV7).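 Further: enzymatic SMUG1 assay coupled with APE1, reading fluorescence at 594 nm released when a quenched double-stranded DNA oligonucleotide substrate is cleaved and separated.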
T4 sequence (whole entry): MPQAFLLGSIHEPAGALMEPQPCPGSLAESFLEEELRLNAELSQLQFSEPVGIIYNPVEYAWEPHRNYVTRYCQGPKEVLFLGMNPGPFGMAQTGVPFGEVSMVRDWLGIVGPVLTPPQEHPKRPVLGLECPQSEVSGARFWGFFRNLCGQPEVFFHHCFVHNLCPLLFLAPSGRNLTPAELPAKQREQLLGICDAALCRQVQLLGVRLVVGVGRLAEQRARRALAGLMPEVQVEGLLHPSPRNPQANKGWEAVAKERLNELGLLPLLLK
The conditions noted are these: Compound Concentration 10.0 uM, Hit No.
Description: Inhibition of SMUG1 by quantifying inhibition of SMUG1-mediated cleavage and dissociation of quenched duplex DNA oligonucleotides, measured as fluorescence at 594 nm. To generate a functional strand incision and increase turn-over this assay is coupled to APE1.

In assay [9] the target is G/T mismatch-specific thymine DNA glycosylase (Homo sapiens) (UniProt Q13569). The conditions noted are these: Compound Concentration 10.0 uM, Hit No.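 Further: human TDG cleavage of quenched duplex DNA oligonucleotides coupled to APE1, strand release read as fluorescence at 594 nm, inhibition of TDG activity.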
Sequence of G/T mismatch-specific thymine DNA glycosylase (Homo sapiens) (Q13569 whole entry): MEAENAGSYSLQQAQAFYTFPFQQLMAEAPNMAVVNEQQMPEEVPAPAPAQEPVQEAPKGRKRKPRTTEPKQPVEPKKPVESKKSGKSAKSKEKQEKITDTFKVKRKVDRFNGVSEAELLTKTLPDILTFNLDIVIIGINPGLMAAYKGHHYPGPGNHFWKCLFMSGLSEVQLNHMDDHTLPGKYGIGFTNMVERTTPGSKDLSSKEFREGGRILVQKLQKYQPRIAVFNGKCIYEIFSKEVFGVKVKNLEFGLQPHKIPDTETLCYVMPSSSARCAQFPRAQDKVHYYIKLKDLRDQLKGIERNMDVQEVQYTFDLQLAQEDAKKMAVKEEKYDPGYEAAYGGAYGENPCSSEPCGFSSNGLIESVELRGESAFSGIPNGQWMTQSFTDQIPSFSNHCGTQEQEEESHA
Description: Inhibition of TDG by quantifying inhibition of TDG-mediated cleavage and dissociation of quenched duplex DNA oligonucleotides, measured as fluorescence at 594 nm. To generate a functional strand incision and increase turn-over this assay is coupled to APE1.
In assay [10] the target is Uracil-DNA glycosylase (Homo sapiens) (UniProt P13051). The conditions noted are these: Compound Concentration 10.0 uM, Hit No.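 Further: UNG excision on a quenched double-stranded DNA oligo probe, with APE1 added for strand incision and turnover, read as fluorescence at 594 nm as strands separate.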
Sequence of Uracil-DNA glycosylase (Homo sapiens) (P13051 whole entry): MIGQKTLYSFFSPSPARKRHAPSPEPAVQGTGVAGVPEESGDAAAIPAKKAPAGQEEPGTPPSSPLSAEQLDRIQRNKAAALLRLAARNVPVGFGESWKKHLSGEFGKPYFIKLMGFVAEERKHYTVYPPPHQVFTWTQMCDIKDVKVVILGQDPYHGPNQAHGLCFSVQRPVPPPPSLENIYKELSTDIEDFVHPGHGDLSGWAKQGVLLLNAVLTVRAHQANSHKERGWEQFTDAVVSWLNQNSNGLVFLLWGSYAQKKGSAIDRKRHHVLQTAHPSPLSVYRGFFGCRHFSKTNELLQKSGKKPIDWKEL
Description: Inhibition of UNG by quantifying inhibition of UNG-mediated cleavage and dissociation of quenched duplex DNA oligonucleotides, measured as fluorescence at 594 nm. To generate a functional strand incision and increase turn-over this assay is coupled to APE1.

Sequence of N-glycosylase/DNA lyase (Homo sapiens) (O15527 whole entry): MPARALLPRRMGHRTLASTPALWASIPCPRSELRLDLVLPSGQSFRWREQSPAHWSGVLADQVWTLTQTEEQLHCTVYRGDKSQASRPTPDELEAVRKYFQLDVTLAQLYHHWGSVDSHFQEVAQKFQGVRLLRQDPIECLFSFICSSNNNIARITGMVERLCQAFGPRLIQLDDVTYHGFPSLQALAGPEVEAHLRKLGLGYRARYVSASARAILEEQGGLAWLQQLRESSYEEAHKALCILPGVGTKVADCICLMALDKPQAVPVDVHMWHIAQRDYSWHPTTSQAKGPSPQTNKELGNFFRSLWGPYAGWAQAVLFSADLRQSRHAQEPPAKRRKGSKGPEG
Sequence of Endonuclease 8-like 1 (Homo sapiens) (Q96FI4 whole entry): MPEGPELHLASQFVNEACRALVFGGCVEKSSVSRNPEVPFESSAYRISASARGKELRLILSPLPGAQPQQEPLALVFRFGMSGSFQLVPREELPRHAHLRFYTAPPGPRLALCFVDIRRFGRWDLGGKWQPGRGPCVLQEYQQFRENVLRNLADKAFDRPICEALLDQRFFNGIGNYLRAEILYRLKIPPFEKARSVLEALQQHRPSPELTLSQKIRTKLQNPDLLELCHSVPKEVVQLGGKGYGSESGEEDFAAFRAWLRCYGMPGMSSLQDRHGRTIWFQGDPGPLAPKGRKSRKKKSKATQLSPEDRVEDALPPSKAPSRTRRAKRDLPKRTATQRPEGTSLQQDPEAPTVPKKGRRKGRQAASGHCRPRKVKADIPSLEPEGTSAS
Sequence of Methyl-CpG-binding domain protein 4 (Homo sapiens) (O95243 whole entry, the tested form may be a part): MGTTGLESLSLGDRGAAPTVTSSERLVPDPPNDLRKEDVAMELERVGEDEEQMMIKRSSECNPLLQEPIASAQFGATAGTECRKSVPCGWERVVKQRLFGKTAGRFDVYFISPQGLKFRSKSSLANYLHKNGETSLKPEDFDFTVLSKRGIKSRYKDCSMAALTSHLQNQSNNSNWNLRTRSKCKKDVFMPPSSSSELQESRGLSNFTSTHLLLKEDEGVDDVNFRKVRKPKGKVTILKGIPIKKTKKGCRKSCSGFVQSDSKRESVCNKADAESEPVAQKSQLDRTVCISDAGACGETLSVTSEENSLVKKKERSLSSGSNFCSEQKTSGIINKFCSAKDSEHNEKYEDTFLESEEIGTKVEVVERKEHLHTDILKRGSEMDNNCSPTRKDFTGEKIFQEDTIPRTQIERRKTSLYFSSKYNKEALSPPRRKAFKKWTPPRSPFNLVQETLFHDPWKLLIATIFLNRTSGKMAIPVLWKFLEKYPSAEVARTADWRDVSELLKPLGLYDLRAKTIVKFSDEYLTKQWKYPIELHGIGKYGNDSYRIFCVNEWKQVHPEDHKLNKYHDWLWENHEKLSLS

Take `COc1cc(C(=O)NS(=O)(=O)c2ccccc2C)ccc1Cc1cn(C)c2ccc(NC(=O)OC3CCCC3)cc12`: the inhibition (in general, the relative decrease from the control value, in per cent) in assay [1] was found to be 67.2%; in [2], 33.1%; in assay [3] it was 50.6%; in assay [4], 13.9%; in assay [5], 28.2%; in assay [6] it was 29.8%. For the same molecule, the inhibition in [7] (Hit Yes) was 45.1%; in assay [8] it was 24%; in [9], 61.3%; in assay [10], 7.14%.
As to `O=C(NNC(=O)c1ccc(CNS(=O)(=O)c2ccc(F)c(Cl)c2)cc1)c1ccccc1`, the inhibition in assay [1] is 27%; in assay [2], 9.45%; in [3], 22.1%; in [4] it was 3.71%; in assay [5] it was -6.97%; in assay [6], 4.7%. For the same molecule, the inhibition in assay [7] (Hit No) is 13.2%; in assay [8] it was 13.3%; in assay [9], 16.4%; in assay [10], -0.108%.
`CCOc1c2c(c(OCC)c3ncccc13)CN(c1ccc(CS(=O)(=O)NC(=O)Cc3ccccc3OC)cc1C)C2=O`: the inhibition in assay [1] is 14.3%; in [2], -2.33%; in assay [3] it was 26.6%; in assay [4], 2.17%; in assay [5], 2.01%; in [6] it was 7.05%. The inhibition in assay [7] (Hit No) is 3.01%; in assay [8], -1.24%; in assay [9], 20.4%; in assay [10] it was -8.19%.
On to `CCOC(=O)N1CCC(c2cc(O)n3nc(C)c(-c4ccc(F)cc4)c3n2)CC1`, for which the inhibition in [1] was 40.6%; in assay [2], 38.1%; in [3], 75.7%; in assay [4], 5.34%; in assay [5] it was 2.71%; in assay [6], 11.3%. The inhibition in [7] (Hit No) was -3.67%; in assay [8] it was 6.03%; in assay [9], 48.9%; in assay [10], -0.428%.
For the molecule `Cc1nn(C)c2nc(NNC(=O)Nc3cc(Cl)nc(Cl)c3)cc(C(C)C)c12`, the inhibition in [1] is -2.58%; in [2] it was -8%; in assay [3], 28.9%; in [4] it was -1.83%; in assay [5], 7.5%; in [6] it was 4.12%. The inhibition in assay [7] (Hit No) is -2.44%; in [8] it was 4.42%; in [9], 16.6%; in [10], -4.71%.
For `Cc1cc(C)cc(C(=O)N(C)[C@H](Cc2ccc(-c3ccccc3)cc2)C(=O)N[C@@H](Cc2c[nH]c3ccccc23)C(=O)O)c1`, the inhibition is 60.3% in assay [1]; 4.38% in assay [2]; 76.9% in assay [3]; -1.83% in assay [4]; 12.5% in assay [5]; 2.66% in [6]. In addition, the inhibition came to 16.2% in assay [7] (Hit No), 4.62% in assay [8], 48.4% in assay [9] and 6.08% in assay [10].
`N[C@@H](CCP(=O)(O)O)C(=O)O`: the inhibition is 13% in assay [1]; -0.846% in [2]; -5.97% in assay [3]; 7.42% in [4]; -3.15% in assay [5]; 12.1% in [6]. Also, the inhibition in assay [7] (Hit No) was -5.28%; in assay [8], -0.24%; in [9], 17.7%; in assay [10] it was -0.352%.
Turning to `NC(=O)c1cc(-c2ccc(S(=O)(=O)[C@H]3CC[C@H](Nc4ccc(C(F)(F)F)cn4)CC3)cc2)ccn1`, the inhibition in assay [1] was 10.9%; in assay [2], -6.62%; in assay [3], 25.9%; in [4], 11%; in [5] it was 9.33%; in [6], 17.1%. Moreover, the inhibition in [7] (Hit No) is -3%; in assay [8], 12.2%; in assay [9], 8.07%; in assay [10], 4.02%.
In the case of `Cc1onc(-c2ccc(F)cc2)c1COc1ccc(C(=O)N2CCS(=O)(=O)CC2)cn1`, the inhibition in [1] is 21.2%; in [2] it was 18.2%; in assay [3], 32%; in assay [4], -9.77%; in assay [5], -7.99%; in assay [6], 12.9%. The inhibition is -9.75% in [7] (Hit No), -9.34% in assay [8], 0.685% in [9] and -0.327% in [10].
On to `CC(C)c1noc(N2CCC(COc3ccc(-c4ccc(S(C)(=O)=O)cc4)nc3)CC2)n1`, for which the inhibition is -9.32% in assay [1]; -8.23% in assay [2]; 18.2% in assay [3]; 10.9% in assay [4]; 5.01% in assay [5]; -6.14% in assay [6]. The inhibition in assay [7] (Hit No) was 3.18%; in assay [8], -6.43%; in assay [9], 3%; in assay [10], -6.54%.
`Cc1nc(-c2ccc(C(F)(F)F)cc2)sc1COc1ccc([C@H](CC(=O)O)c2ccon2)cc1`: the inhibition came to 20.8% in assay [1]; 3.92% in assay [2]; 23.2% in assay [3]; 3.95% in assay [4]; 2.26% in assay [5]; 16.6% in assay [6]. Besides, the inhibition in assay [7] (Hit Yes) is 41.1%; in [8], 7.09%; in [9], 27%; in assay [10], -5.51%.
`O=C(Nc1ccc(S(=O)(=O)Nc2nccs2)cc1)C(c1ccccc1)c1ccccc1`: the inhibition in assay [1] was 66%; in assay [2], 34%; in assay [3], 80.2%; in assay [4] it was -2.51%; in [5], -1.11%; in assay [6], 17.9%. Besides, the inhibition in assay [7] (Hit No) was -6.39%; in assay [8] it was 7.67%; in assay [9], 52.5%; in assay [10] it was 3.78%.
With `COc1ccc(CC(=O)NCc2ccccc2-c2ccccc2C(=O)NCc2ccc(F)cc2F)cc1`, the inhibition in assay [1] was 5.5%; in [2] it was 22.4%; in assay [3] it was 11.7%; in [4], 0.75%; in assay [5] it was 2.71%; in assay [6], -5.21%. For the same molecule, the inhibition in [7] (Hit No) is -0.346%; in assay [8], 11%; in assay [9] it was 13.6%; in assay [10] it was 1.16%.
`O=C(O)c1ccc(S(=O)(=O)N(Cc2ccc(OC(F)(F)F)cc2)c2ncc(C(F)(F)F)cc2Cl)cc1`: the inhibition in assay [1] was 39.2%; in [2], 12.7%; in [3], 61.2%; in assay [4], 11.7%; in assay [5], 14.4%; in assay [6] it was 14.6%. Also, the inhibition in [7] (Hit No) came to 15.6%; in assay [8], 2.42%; in assay [9], 35%; in [10], 2.72%.
